Data as given in ChEMBL document CHEMBL1143421, “Population pharmacokinetics at two dose levels and pharmacodynamic profiling of flucloxacillin” (Antimicrob Agents Chemother, 2007).

Assays:
[1] = Total body clearance in human at 500 mg, iv infused for 5 mins; settings: in vivo
[2] = Renal clearance in human at 500 mg, iv infused for 5 mins; type: ADME, organism-based, Kidney; settings: in vivo, read-out: CL_renal (converted)
[3] = test system: Homo sapiens; assay: Nonrenal clearance in human at 500 mg, iv infused for 5 mins; type: ADME, organism-based; settings: in vivo
[4] = test system: Homo sapiens; assay: Metabolic stability in human assessed as urinary excretion of unchanged drug level at 500 mg, iv infused for 5 mins; type: ADME, organism-based, Urine; settings: in vivo
[5] = Volume of distribution at steady state in human at 500 mg, iv infused for 5 mins; type: ADME, organism-based; settings: in vivo, read-out: Vdss
[6] = Plasma concentration in human at 500 mg, iv infused for 5 mins; type: ADME, organism-based
[7] = Terminal half life in human at 500 mg, iv infused for 5 mins; type: ADME, organism-based; settings: in vivo, read-out: beta t1/2 (converted)
[8] = Mean residence time in human at 500 mg, iv infused for 5 mins; type: ADME, organism-based; settings: in vivo
[9] = Total body clearance in human at 1000 mg, iv infused for 5 mins; settings: in vivo
[10] = Renal clearance in human at 1000 mg, iv infused for 5 mins; type: ADME, organism-based, Kidney; settings: in vivo, read-out: CL_renal (converted)
[11] = test system: Homo sapiens; assay: Nonrenal clearance in human at 1000 mg, iv infused for 5 mins; type: ADME, organism-based; settings: in vivo
[12] = test system: Homo sapiens; assay: Metabolic stability in human assessed as urinary excretion of unchanged drug level at 1000 mg, iv infused for 5 mins; type: ADME, organism-based, Urine; settings: in vivo
[13] = Volume of distribution at steady state in human at 1000 mg, iv infused for 5 mins; type: ADME, organism-based; settings: in vivo, read-out: Vdss
[14] = Terminal half life in human at 1000 mg, iv infused for 5 mins; type: ADME, organism-based; settings: in vivo, read-out: beta t1/2 (converted)
[15] = Mean residence time in human at 1000 mg, iv infused for 5 mins; type: ADME, organism-based; settings: in vivo
[16] = Renal clearance in human at a loading dose of 1 g and maintenance dose of 1.2 g/h for 3 hrs; type: ADME, organism-based, Kidney; settings: in vivo, iv, read-out: CL_renal (converted)
[17] = organism: Homo sapiens; assay: Nonrenal clearance in human at a loading dose of 1 g and maintenance dose of 1.2 g/h for 3 hrs; type: ADME, organism-based; settings: in vivo
[18] = Total clearance in human at 1 g, iv infused for 5 mins; settings: in vivo
[19] = Protein binding in human plasma; type: ADME, cell-free; settings: read-out: PPB (converted)
[20] = test system: Staphylococcus aureus; assay: Antibacterial activity against methicillin-susceptible Staphylococcus aureus; type: functional
[21] = test system: Staphylococcus aureus; assay: Bactericidal activity against methicillin-susceptible Staphylococcus aureus infected human at MIC of 0.75 mg/l at 2 g, iv administered every 8 hrs as 4 hrs infusion; type: functional
[22] = test system: Staphylococcus aureus; assay: Bactericidal activity against methicillin-susceptible Staphylococcus aureus infected human at MIC of 0.75 mg/l at 6 g, iv administered as continuous infusion for 4 hrs; type: functional
[23] = test system: Staphylococcus aureus; assay: Bactericidal activity against methicillin-susceptible Staphylococcus aureus infected human at MIC of 0.25 mg/l at 1.5 g, iv administered every 6 hrs as 0.5 hrs infusion; type: functional
[24] = test system: Staphylococcus aureus; assay: Bactericidal activity against methicillin-susceptible Staphylococcus aureus infected human at MIC of 1 mg/l at 2 g, iv administered every 4 hrs as 0.5 hrs infusion; type: functional
[25] = test system: Staphylococcus aureus; assay: Bacteriostatic activity against methicillin-susceptible Staphylococcus aureus infected human at MIC of 1.5 mg/l at 2 g, iv administered every 8 hrs as 4 hrs infusions; type: functional
[26] = test system: Staphylococcus aureus; assay: Bacteriostatic activity against methicillin-susceptible Staphylococcus aureus infected human at MIC of 0.75 mg/l at 6 g, iv administered as continuous infusion for 4 hrs; type: functional
[27] = test system: Staphylococcus aureus; assay: Bacteriostatic activity against methicillin-susceptible Staphylococcus aureus infected human at MIC of 0.75 mg/l at 1.5 g, iv administered every 6 hrs as 0.5 hrs infusion; type: functional
[28] = test system: Staphylococcus aureus; assay: Bacteriostatic activity against methicillin-susceptible Staphylococcus aureus infected human at MIC of 2 mg/l at 2 g, iv administered every 4 hrs as 0.5 hrs infusion; type: functional
[29] = Plasma concentration in human at 1000 mg, iv infused for 5 mins; type: ADME, organism-based
[30] = clinical; settings: human, in vivo
Description: Total clearance in human at a loading dose of 1 g and maintenance dose of 1.2 g/h for 3 hrs

clearance at 5 min [1]: 136 mL/min
CL renal at 5 min [2]: 89.5 mL/min
CL [3]: 2.72 L/h
Activity [4]: 0.66
Vd [5]: 9.63 L
concentration at 5 min [6]: 86.8 µg/mL
half-life [7]: 1.4 h
MRT [8]: 1.18 h
clearance at 5 min [9]: 136 mL/min
CL renal at 5 min [10]: 88.2 mL/min
CL [11]: 2.79 L/h
Activity [12]: 0.65
Vd [13]: 9.97 L
half-life [14]: 1.62 h
MRT [15]: 1.22 h
CL renal at 3 h [16]: 88.3 mL/min
CL [17]: 2.1 L/h
clearance at 5 min [18]: 118 mL/min
fraction unbound [19]: 0.054
MIC90 [20]: ≤ 0.5 µg/mL
fT>MIC [25]: >=30%
fT>MIC [26]: >=30%
fT>MIC [28]: >=30%
concentration at 5 min [29]: 167 µg/mL
clearance at 3 h [30]: 123 mL/min
Compound: Cc1onc(-c2c(F)cccc2Cl)c1C(=O)N[C@@H]1C(=O)N2[C@@H]1SC(C)(C)[C@@H]2C(=O)O [FLOXACILLIN]
fT>MIC [21]: >=50%
fT>MIC [22]: >=50%
fT>MIC [23]: >=50%
fT>MIC [24]: >=50%
Activity [27]: >30%
